# Laboratory results: patent US7541367B2, “3-benzoimidazolyl-pyrazolopyridines useful in treating kinase disorders” (Janssen Pharmaceutica, N.V., priority 2005, dated 2009)
# How the values were obtained:
# [1] = tested on: Human melanoma A375 cells; experiment: In Vivo Models - Inhibition of Tumor Growth (A375 xenograft); settings: female athymic mice, 25 mg/kg i.p. daily
# Experimental: The ability of test compounds to inhibit unregulated growth of human tumor cells in vivo was evaluated by implanting human tumor cells into the hindflank of athymic mice, administering a test compound and then quantifying any change in tumor size.
# Certain compounds at particular doses produced adverse effects in this model. One skilled in the art would be able to establish the effective amount of compound required to achieve an effective therapeutic window.
# Human melanoma A375 cells were implanted subcutaneously into the hindflank of female athymic mice (Charles River) and allowed to grow for 6-10 days. After a measurable tumor was established (as determined by baseline caliper measurement), the animal was administered an intraperitoneal (i.p.) dose of the test compound daily at 25 mg/kg for the length of the study. Tumor size was measured at certain intervals as shown in Table 5 and the degree of inhibition for a test compound was determined by comparing the reduction in tumor volume for drug-treated animals to that of untreated and vehicle-treated animals. The vehicle used was 20% hydroxypropyl β-cyclodextran.
# CDK1 = molecular target: T1, CDK1 (Homo sapiens, UniProt P06493); experiment: CDK-1 kinase screening assay (33P-ATP FlashPlate); assay type: biochemical; settings: human CDK1 with cyclin B; 10 μM ATP; 1 hr at 30° C
# T1 construct: purchased New England Biolabs, Beverly, Mass; 6020; host or cells: insect cells
# T1 sequence (P06493 whole entry): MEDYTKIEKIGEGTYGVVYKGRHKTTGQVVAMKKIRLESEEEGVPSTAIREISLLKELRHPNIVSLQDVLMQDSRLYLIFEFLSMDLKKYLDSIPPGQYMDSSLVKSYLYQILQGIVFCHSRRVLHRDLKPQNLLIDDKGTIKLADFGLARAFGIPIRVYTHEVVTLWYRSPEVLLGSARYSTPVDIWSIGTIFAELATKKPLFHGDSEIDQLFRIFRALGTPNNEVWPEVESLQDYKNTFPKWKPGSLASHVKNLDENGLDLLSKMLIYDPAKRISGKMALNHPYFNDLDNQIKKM
# T1 sequence (P14635 whole entry partner): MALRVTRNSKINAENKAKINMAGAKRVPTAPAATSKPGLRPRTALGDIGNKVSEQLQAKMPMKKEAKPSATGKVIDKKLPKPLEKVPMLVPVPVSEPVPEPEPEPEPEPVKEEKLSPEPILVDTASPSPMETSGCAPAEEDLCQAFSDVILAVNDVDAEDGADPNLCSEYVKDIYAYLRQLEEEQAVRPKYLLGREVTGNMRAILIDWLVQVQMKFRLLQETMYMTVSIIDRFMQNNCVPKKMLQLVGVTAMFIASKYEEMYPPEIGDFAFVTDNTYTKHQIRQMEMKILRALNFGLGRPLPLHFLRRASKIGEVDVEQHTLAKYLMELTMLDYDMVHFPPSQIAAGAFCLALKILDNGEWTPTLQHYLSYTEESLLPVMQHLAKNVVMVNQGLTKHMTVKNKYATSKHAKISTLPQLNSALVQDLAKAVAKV
# [2] = tested on: HeLa cervical adenocarcinoma; experiment: Cell Proliferation Inhibition Assay (14C-thymidine incorporation), HeLa; assay type: cell-based; settings: Homo sapiens, HeLa, HeLa cells;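 also: test compound in DMSO added to cells seeded in scintillating 96-well plates, DMSO-only wells as control, uptake of methyl 14C-thymidine into new DNA counted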
IC50 (CDK1),IC50 [2],SMILES,Tumor volume ([1]; Day 1),Tumor volume ([1]; Day 4),Tumor volume ([1]; Day 8),Tumor volume ([1]; Day 11),Tumor volume ([1]; Day 14)
0.9 to 1.3 nM,–,"CNCc1cncc(-c2cnc3[nH]nc(-c4nc5cc(OC(F)(F)F)ccc5[nH]4)c3c2)c1 [Cpd 96, methyl-{5-[3-(5-trifluoromethoxy-1H-benzoimidazol-2-yl)-1H-pyrazolo[3,4-b]pyridin-5-yl]-pyridin-3-ylmethyl}-amine]",95.4 mm^3,68.3 mm^3,–,–,–
0.8 nM,34.2 nM,"CCNCc1cncc(-c2cnc3[nH]nc(-c4nc5cc(OC)ccc5[nH]4)c3c2)c1 [Cpd 101, ethyl-{5-[3-(5-methoxy-1H-benzoimidazol-2-yl)-1H-pyrazolo[3,4-b]pyridin-5-yl]-pyridin-3-ylmethyl}-amine]",95.4 mm^3,128 mm^3,354.1 mm^3,632.3 mm^3,988.7 mm^3
